Patent publication US4016258A, “Vasoactive intestinal peptide from fowl” (priority 1975, dated 1977)
Ends that are not written are not given here.

Experiments:
Intact anesthetized dogs = experiment: Intact anesthetized dogs: infusion into one femoral artery, femoral blood flow and aortic blood pressure measured; assay type: in vivo, dog; details: for hypotensive effect compared with the porcine peptide: dogs, comparison with porcine vasoactive intestinal peptide
Source text: 1. Intact anesthetized dogs
The peptide was infused into one femoral artery, and the blood flow in that artery, as well as the aortic blood pressure, were continually measured. During the infusion of the peptide, blood pressure fell and blood flow increased, indicating peripheral vasodilation.

rat colon = experiment: Isolated smooth-muscle organ strips superfused in series: rat colon; details: rat colon strip superfused with Krebs solution
Source text: (§1) 2. Isolated smooth-muscle organs
(§2) Four strips of smooth-muscle organs: rat stomach, guinea pig trachea, rat colon, and guinea pig gallbladder, were placed in series and superfused with warm physiological solution (Krebs), bubbled with 95% O2 and 5% CO2. The organ strips were attached to special transducers which measured their contraction or relaxation.

rat stomach = experiment: Isolated smooth-muscle organ strips superfused in series: rat stomach; details: rat stomach strip superfused with Krebs solution; often initial brief contraction followed by relaxation
Source text: as §1, §2

guinea pig gallbladder = experiment: Isolated smooth-muscle organ strips superfused in series: guinea pig gallbladder; details: guinea pig gallbladder strip superfused with Krebs solution
Source text: as §1, §2

guinea pig trachea = experiment: Isolated smooth-muscle organ strips superfused in series: guinea pig trachea
Source text: as §1, §2

Q: Which “aortic blood pressure during infusion” value (Intact anesthetized dogs; anesthetized dogs, infusion into femoral artery) does the source give for “HSDAVFTDNYSRFRKQMAVKKYLNSVLT-NH2 [chicken peptide]” here?
A: Its value is “fell”.

Q: And the “blood flow in femoral artery during infusion” value (Intact anesthetized dogs; anesthetized dogs, infusion into femoral artery, indicates peripheral vasodilation)?
A: Its value is “increased”.

Q: What about the “hypotensive effect compared with the porcine peptide” value (Intact anesthetized dogs) of the same substance?
A: The value was “less marked and shorter lasting”.

Q: And the “hypotensive effect compared with the porcine peptide” value (Intact anesthetized dogs; listed as peptide)?
A: The value was “relatively short duration”.

Q: And the “effect on colon strip” value (rat colon)?
A: The value was “usually contracted”.

Q: And the “effect on stomach strip” value (rat stomach)?
A: Its value is “relaxation”.

Q: What about the “effects on gallbladder strip” value (guinea pig gallbladder) of the same substance?
A: The value was “variable”.

Q: What about the “relaxation of trachea compared with porcine peptide” value (guinea pig trachea; doses eliciting equal relaxation of stomach, chicken vs porcine peptide) of the same substance?
A: The value was “many times greater”.

Q: What about the “effect on trachea strip” value (guinea pig trachea; guinea pig trachea strip superfused with Krebs solution) of the same substance?
A: Its value is “relaxation”.

Q: And the “relaxant potency on guinea pig trachea relative to other smooth muscles tested” value (guinea pig trachea; in comparison with porcine vasoactive intestinal peptide)?
A: Its value is “relatively more potent relaxant”.
